Experiment [1] relates to AR mRNA. Put plainly: AR mRNA levels in androgen-deprived prostate cancer cells (qPCR with AR primers). Format: cell-based, human. Conditions: androgen-deprived LAPC4 and LNCaP cells, overnight treatment.
The subject of experiment [2] is H4 Y88-phosphorylation (ACK1). Put plainly: Endogenous H4 pY88-phosphorylation in LNCaP cells (pY88-H4 immunoprecipitation / H4 immunoblot). The note with it: 16 hrs. The experiment is classed as cell-based, human. The method, then:
FIGS. 9A-9E show ACK1 phosphorylates histone H4 at Tyrosine 88. (FIG. 9A) peptide were spotted followed by immunoblotting with indicated antibodies. (FIG. 9B) Equimolar amounts of purified ACK1 and H4 proteins were incubated in the presence of AIM-100 (100 nM) and reaction subjected to immunoblotting with pTyr antibodies. (FIG. 9C) In vitro kinase assay performed using purified ACK1 and H4, followed by immunoblotting with pY88-H4 antibodies. (FIG. 9D) H4 Y88-phosphorylation in vivo. LNCaP cells were treated with DZI-067, AIM-100 or Enzalutamide (7 uM, 16 hrs). The nuclear lysates were immunoprecipitated with pY88-H4 antibodies followed by immunoblotting with H4. Lower panel is input lysate. (FIG. 9E) LNCaP cells were treated with Crizotinib (1 uM, 16 hrs). The cell lysates were immunoprecipitated with pY88-H4 antibodies followed by immunoblotting with H4 (upper panel).
To explore the sensitivity of endogenous H4 pY88-phosphorylation to ACK1 inhibitor, LNCaP cells were treated with DZI-067, AIM-100 or Enzalutamide.
Applicant also assessed the sensitivity of endogenous H4 pY88-phosphorylation to small molecule inhibitor, Crizotinib, also known as Xalkori (Pfizer). […] It is approved for treatment of some non-small cell lung carcinoma (NSCLC).

Experiment [3] deals with AR protein levels. Nature of the experiment: AR protein levels in androgen deprived prostate cancer cells (immunoblotting). Format: cell-based, human. The note with it: LNCaP cells, MG 132 10 uM 6 hr, in presence or absence of AIM-100. As for the experimental part: (FIG. 6A) Androgen starved LAPC4 cells were treated with DHT (10 nM, 16 Hrs), AIM-100, DZI-067, Enzalutamide or PLX4032 (7 uM, 36 Hr) and AR, pACK1 and Actin levels were determined by immunoblotting (IB). The relative level of AR is shown below. (FIG. 6B) Androgen deprived LNCaP and VCaP cell were untreated or treated with 2.5, 5 and 10 uM of AIM-100 and lysates were immunoblotted. The quantitation of AR expression is shown. (FIG. 6C) Androgen deprived LNCaP and VCaP cell were untreated or treated with 2.5, 5 and 10 uM of DZI-067 and lysates were immunoblotted. The quantitation of AR expression is shown. (FIG. 6D) LNCaP cells were transfected with control and Ack1 siRNAs followed by immunoblotting. (FIG. 6E) LNCaP cells treated with AIM-100 (7 uM, 16 hr) or MG 132 (10 uM, 6 hr) were immunoblotted with AR antibodies. […]
AR has been known to interact with an ubiquitin E3 ligase, RNF6, causing AR ubiquitination, which in turn promoted AR transcriptional activity (Xu, K. et al. (2009) Cancer Cell 15(4):270-282). To determine whether post-translational modification has role to play in suppression of AR levels upon Ack1 kinase inhibition, LNCaP cells were treated with proteosomal inhibitor, MG-132 and AR levels were measured in presence or absence of AIM-100.
Background: A western blot detects proteins with antibodies after separation by electrophoresis.

Experiment [4] has as its system PSA mRNA. Nature of the experiment: PSA mRNA levels in androgen-deprived prostate cancer cells (qPCR with PSA primers). Conditions: overnight treatment. Format: cell-based, human. As for the experimental part: (FIG. 7A) VCaP and (FIG. 7B) LNCaP cells were grown in absence of androgen and were overnight treated with DZI-067 (7 uM in VCaP, 2.5 & 5 uM in LnCaP), AIM-100 (7 uM), PLX4032 (7 uM), Casodex, Enzalutamide (10 uM) and DHT (10 nM, 3 Hr). Total RNA was isolated followed by qPCR with AR primers. VCaP, *p=0.022, **p=0.018; LNCaP, *p=0.042, **p=0.047, ***p=0.029. (FIG. 7C) VCaP and (FIG. 7D) LNCaP cells were grown in absence of androgen and were overnight treated with DZ1-067 (7 uM in LAPC4, 2.5 & 5 uM in LnCaP), AIM-100 (7 uM), PLX4032 (7 uM), Casodex, Enzalutamide (10 uM) and DHT (10 nM, 3 Hr). Total RNA was isolated followed by qPCR with PSA primers.

The test system of experiment [5] is CRPC patients. Conditions: cited from earlier work.
In experiment [6] the test system is IDH2 transcript. Put plainly: Epigenetic marks and IDH2 transcript levels in melanoma cancer cells. The experiment is classed as cell-based, human.
The subject of experiment [7] is WEE1. Conditions: yeast and mammalian cells; cited from earlier work.
Experiment [8] deals with WEE1 expressing cancer cell lines. Conditions: cited from earlier work.

This is an account of results in patent US20190212343A1, “METHODS FOR THE TREATMENT OF DISORDERS RELATED TO PHOSPHORYLATION OF HISTONES” (H. LEE MOFFITT CANCER CENTER AND RESEARCH INSTITUTE, INC., priority 2014, published 2019).

Residues, ends and D or L forms follow the SMILES beside them. *: point of attachment. Cbz = O=C(OCc1ccccc1)* Bounds are passed on as bounds.

`CCCS(=O)(=O)Nc1ccc(F)c(C(=O)c2c[nH]c3ncc(-c4ccc(Cl)cc4)cc23)c1F` [PLX4032]: the “AR mRNA levels” value in experiment [1] is recorded as “no significant change in AR mRNA levels”.

For the compound `C[C@]12CCC(=O)C[C@@H]1CC[C@@H]1[C@@H]2CC[C@]2(C)[C@@H](O)CC[C@@H]12` [DHT, dihydrotestosterone], the “AR mRNA levels” value in experiment [1] is given as “no significant change in AR mRNA levels”. Further, the “endogenous pY88-phosphorylation of H4” value in experiment [2] (7 uM) was “unaffected”.

On to `CC(C)C[C@@H](C=O)NC(=O)[C@H](CC(C)C)NC(=O)[C@H](CC(C)C)NC(=O)OCc1ccccc1` [MG-132] (Cbz-Leu-Leu-Leu-aldehyde), for which the “loss of AR caused by Ack1 kinase inhibition” value in experiment [3] is recorded as “did not prevent loss of AR”.

Regarding `C[C@@H](Oc1cc(-c2cnn(C3CCNCC3)c2)cnc1N)c1c(Cl)ccc(F)c1Cl` [Crizotinib], the “endogenous pY88-phosphorylation of H4” value in experiment [2] (1 uM) is on record as “significant loss of endogenous pY88-phosphorylation of H4”.

For the compound `CC(O)(CS(=O)(=O)c1ccc(F)cc1)C(=O)Nc1ccc(C#N)c(C(F)(F)F)c1` (stereo not drawn) [Casodex], the “AR mRNA levels” value in experiment [1] is reported as “no significant change in AR mRNA levels”. In experiment [4], the “PSA mRNA levels” value was “significantly suppressed PSA mRNA levels”.

Take `CNC(=O)c1ccc(N2C(=S)N(c3ccc(C#N)c(C(F)(F)F)c3)C(=O)C2(C)C)cc1F` [Enzalutamide]: the “AR mRNA levels” value in experiment [1] was “no significant change in AR mRNA levels”. For the same compound, in experiment [4], the “PSA mRNA levels” value is “significantly suppressed PSA mRNA levels”. Moreover, the “endogenous pY88-phosphorylation of H4” value in experiment [2] (7 uM) is on record as “unaffected”. Moreover, in experiment [5], the “CRPC patients in whom treatment is effective” value is 12 out of 30, the overall survival advantage was 4-6 months and the “time to relapse of the most responding patients” value is given as at most 2 years.

Take `C=CCn1c(=O)c2cnc(Nc3ccc(N4CCN(C)CC4)cc3)nc2n1-c1cccc(C(C)(C)O)n1` [MK-1775]: in experiment [6], the IDH2 transcript levels result is listed as “increasing IDH2 transcript levels” and the WEE1 epigenetic marks entry is on record as “reversed epigenetic marks”. For the same compound, in experiment [7], the WEE1 epigenetic activity result is “inhibited WEE1 epigenetic activity” and the histone transcriptional suppression result is reported as “robustly reversed histone transcriptional suppression”. In experiment [8], the apoptosis entry is “selectively induces apoptosis”.
